Measurements published in ChEMBL document CHEMBL1667861, “Kinetic and docking studies of phenol-based inhibitors of carbonic anhydrase isoforms I, II, IX and XII evidence a new binding mode within the enzyme active site” (Bioorg Med Chem, 2011).

How the values were obtained:
[1] = target: Carbonic anhydrase 2 (Homo sapiens, UniProt P00918); assay: Inhibition of human carbonic anhydrase 2 preincubated for 15 mins by CO2 hydration stopped-flow assay
[2] = target: Carbonic anhydrase 12 (Homo sapiens, UniProt O43570)
Carbonic anhydrase 12, sequence (O43570 whole entry): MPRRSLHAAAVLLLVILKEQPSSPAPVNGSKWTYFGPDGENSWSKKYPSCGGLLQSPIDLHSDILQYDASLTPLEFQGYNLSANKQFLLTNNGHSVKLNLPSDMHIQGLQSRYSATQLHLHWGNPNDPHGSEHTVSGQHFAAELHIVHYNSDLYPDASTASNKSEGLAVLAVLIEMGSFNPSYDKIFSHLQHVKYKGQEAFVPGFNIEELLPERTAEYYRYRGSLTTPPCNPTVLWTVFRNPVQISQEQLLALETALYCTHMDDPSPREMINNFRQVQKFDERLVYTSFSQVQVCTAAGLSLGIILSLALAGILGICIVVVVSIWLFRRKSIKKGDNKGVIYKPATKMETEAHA

[3] = target: Carbonic anhydrase 9 (Homo sapiens, UniProt Q16790); assay: Inhibition of human carbonic anhydrase 9 preincubated for 15 mins by CO2 hydration stopped-flow assay
[4] = target: Carbonic anhydrase 1 (Homo sapiens, UniProt P00915); assay: Inhibition of human carbonic anhydrase 1 preincubated for 15 mins by CO2 hydration stopped-flow assay
Carbonic anhydrase 1, sequence (P00915 whole entry): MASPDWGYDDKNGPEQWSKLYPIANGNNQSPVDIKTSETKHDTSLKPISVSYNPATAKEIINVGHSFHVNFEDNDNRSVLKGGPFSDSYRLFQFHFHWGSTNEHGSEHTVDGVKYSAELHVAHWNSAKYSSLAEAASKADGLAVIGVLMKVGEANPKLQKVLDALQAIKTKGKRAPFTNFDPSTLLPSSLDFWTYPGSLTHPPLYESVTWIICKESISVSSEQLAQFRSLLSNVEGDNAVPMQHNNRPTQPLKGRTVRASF

SMILES | Ki [1] | Ki [2] | Ki [3] | Ki [4]
COc1ccc(C(=O)O)cc1OC [VERATRIC ACID] | 6.18 µM | 6.7 µM | 8.25 µM | 6.83 µM
COc1ccc(OC)c(OC)c1 [1,2,4-TRIMETHOXYBENZENE] | – | – | 4.06 µM | –
O=C(O)c1cccc(O)c1 [3-HYDROXYBENZOIC ACID] | 0.6 µM | 3.53 µM | 4.53 µM | 2.37 µM
O=C(O)c1cc(O)cc(O)c1 [3,5-DIHYDROXYBENZOIC ACID] | – | 3.67 µM | 4.41 µM | 0.55 µM
O=C(O)c1ccc(O)c(O)c1 [PROTOCATECHUIC ACID] | – | 4.09 µM | 4.45 µM | 1.08 µM
COc1ccc(OC)cc1 [1,4-DIMETHOXYBENZENE] | 3.35 µM | – | – | –
